The experiment has as its target Citrate synthase, peroxisomal (Saccharomyces cerevisiae (strain ATCC 204508 / S288c)) (UniProt P08679). Briefly: yeast TOR pathway CIT2-GFP reporter potency – flow cytometry, MLPCN hits, dose response (AID 2744). The conditions noted are these: S. cerevisiae CIT2-GFP strain, 3 h; for GFP fluorescence, higher = induction: at 33 µM (top of the series); for EC50: flow cytometry fluorescence.

Consider 86 compounds from PubChem BioAssay AID2744 (NMMLSC, 2010).

The source made the active and inactive calls.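 Rule for the calls: active = fitted half-maximal concentration for changing reporter fluorescence at or below a set limit; inactive = the rest.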

Chain of Citrate synthase, peroxisomal (Saccharomyces cerevisiae (strain ATCC 204508 / S288c)) (P08679 whole entry, looked up): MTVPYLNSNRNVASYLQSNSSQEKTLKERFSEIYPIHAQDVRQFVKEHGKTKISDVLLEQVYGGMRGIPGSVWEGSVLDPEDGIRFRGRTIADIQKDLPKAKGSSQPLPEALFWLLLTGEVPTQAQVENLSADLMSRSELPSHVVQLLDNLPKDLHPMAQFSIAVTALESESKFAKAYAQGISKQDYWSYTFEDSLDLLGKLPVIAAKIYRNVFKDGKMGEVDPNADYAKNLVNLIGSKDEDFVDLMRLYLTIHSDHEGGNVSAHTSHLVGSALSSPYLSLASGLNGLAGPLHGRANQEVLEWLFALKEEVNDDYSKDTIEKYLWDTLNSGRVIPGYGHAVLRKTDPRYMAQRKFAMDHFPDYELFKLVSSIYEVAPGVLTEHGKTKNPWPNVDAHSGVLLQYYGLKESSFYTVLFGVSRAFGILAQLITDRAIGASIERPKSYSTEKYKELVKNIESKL

Turning to `CC1(C(=O)NC(=S)NNC(=O)c2ccncc2)CCCCC1`, the “GFP fluorescence, higher = induction” value was “inactive”.
Same read-out and setting: the value for `CCOC(=O)C(C(=O)OCC)C(C(=O)OCC)N1CCOCC1` (stereo unspecified) was “inactive”; that for `O=C1ON=C(c2ccccc2)/C1=C/c1ccco1` was “inactive”; that for `O=C(OCn1ncc(Br)c(Br)c1=O)c1ccccc1Cl` was “inactive”.
On the same count and under the same terms, the value for `CC(=O)Oc1cccc(N2C(=O)c3cccc4c([N+](=O)[O-])ccc(c34)C2=O)c1` was “inactive”; that for `C/C(=N\Nc1ncnc2sc(C)c(C)c12)c1ccccn1` was “inactive”.
On the same count and under the same terms, the value for `O=C1c2ccccc2C(=O)C2OC12` (stereo unspecified) was “inactive”; that for `O=C1C=C(Nc2ccc(Cl)cc2)C(=O)N1c1ccc(Cl)cc1` was “inactive”; that for `COc1ccc(N2C(=O)CC(Sc3ncn[nH]3)C2=O)c(OC)c1` (stereo unspecified) was “inactive”.
As for `Cc1ccc(NC(=O)c2cc(N3C(=O)C=CC3=O)ccc2Cl)cc1C`, the “GFP fluorescence, higher = induction” value is “inactive”.
On the same count and under the same terms, the entry for `COC(=O)c1cc(N2C(=O)C3C(C2=O)C2(C)C=CC3(C)O2)ccc1Cl` (stereo unspecified) is “inactive”.
With `Oc1ccc2ccccc2c1N=Nc1nccs1`, the “GFP fluorescence, higher = induction” value is “inactive”.
`COc1ccc(N2C(=O)C(Cl)=C(Nc3c(C)n(C)n(-c4ccccc4)c3=O)C2=O)cc1`: the “GFP fluorescence, higher = induction” value is “inactive”.
Same read-out and setting: the value for `O=C1N(c2ccccc2C(F)(F)F)O[C@]1(c1ccccc1)C1CCCCC1` was “inactive”.
Same read-out and setting: the value for `COC(CNC(=O)c1ccc2c3c(onc13)-c1ccccc1C2=O)OC` was “inactive”.
On the same count and under the same terms, the entry for `COc1cc(C=C2C(=O)c3ccccc3C2=O)cc(OC)c1OC` is “inactive”; for `Cc1cc(NC(c2ccc(Cl)cc2)c2ccc3cccnc3c2O)no1` (stereo unspecified) it is “inactive”; for `Cc1nc2ccc(NC(=O)c3oc4ccc(F)cc4c3C)cc2s1` it is “inactive”.
For `CCCCCn1c(=O)c(C(=O)Nc2nc3ccccc3[nH]2)c(O)c2ccccc21`, the “GFP fluorescence, higher = induction” value was “inactive”.
The same measure, in the same setting: the value for `O=[N+]([O-])c1cc(Cl)cc(/C=N\Nc2ccccn2)c1O` was “inactive”; that for `CCn1c(=O)c(C(=O)Nc2nc3ccccc3[nH]2)c(O)c2ccccc21` was “inactive”.
The same measure, in the same setting: the value for `Cc1cccc(Nc2nc(-c3ccccn3)cs2)n1` was “inactive”; that for `O=C(COc1ccccc1)NNC(=S)NC(=O)c1ccc(Cl)cc1Cl` was “inactive”; that for `O=C(Nc1nnc(-c2ccc(F)cc2)o1)c1cc(Cl)sc1Cl` was “inactive”.
On the same count and under the same terms, the entry for `CN(Cc1cnc2nc(N)nc(N)c2n1)c1ccc(C(=O)N[C@@H](CCC(=O)O)C(=O)O)cc1` is “inactive”; for `CCCS(=O)(=O)c1nnnn1-c1cccc(OC)c1` it is “inactive”.
In the case of `O=C(Nc1nc2ccc(F)cc2s1)c1ccccn1`, the “GFP fluorescence, higher = induction” value is “inactive”.
In the case of `Cc1ccc2[nH]cc(/C=C/c3cc[n+](C)cc3)c2c1`, the “GFP fluorescence, higher = induction” value was “inactive”.
Consider `CCC(=O)Nc1ccc(NC(=O)c2cc3ccccc3o2)c(OC)c1`, for which the “GFP fluorescence, higher = induction” value is “inactive”.
Still for that read-out and setting: the value for `COc1ccc(N2CCN(C(=O)c3ccc(Br)cc3)CC2)c([N+](=O)[O-])c1` was “inactive”; that for `CC(C)(C)n1nc(-c2ccc(Cl)cc2)c2c(N)ncnc21` was “inactive”; that for `CC(Oc1cccc(Cl)c1)C(=O)Nc1nc(-c2ccccn2)cs1` (stereo unspecified) was “inactive”.
As for `COc1cccc(C(=O)Nc2nnc(-c3ccc(Cl)cc3)o2)c1`, the “GFP fluorescence, higher = induction” value is “inactive”.
On the same count and under the same terms, the entry for `CN(C)/C=C/C(=O)c1ccc(-c2ccc(Cl)cc2Cl)o1` is “inactive”; for `Cc1cc(/C=C2/SC(=S)N(c3cccc(Cl)c3)C2=O)c(C)n1-c1cccnc1` it is “inactive”; for `N#Cc1nccnc1S(=O)(=O)c1cccs1` it is “inactive”.
Still for that read-out and setting: the entry for `O=C(OCn1ncc(Br)c(Br)c1=O)c1c(F)cccc1F` is “inactive”; for `O=C1C=CC(=O)N1c1ccc(N2CCCCC2)cc1` it is “inactive”.
For `O=C(O)c1ccn2c(C(=O)c3ccccc3)c(-c3ccccc3)cc2c1`, the “GFP fluorescence, higher = induction” value is “inactive”.
Still for that read-out and setting: the entry for `CCOC(=O)COc1ccc2ccccc2c1/C=C/[N+](=O)[O-]` is “inactive”.
The same measure, in the same setting: the entry for `COc1ccccc1[C@@]1(C)ON(c2ccccc2C(F)(F)F)C1=O` is “inactive”; for `Cc1cc(C)c(OCC(=O)Nc2nc(-c3ccccn3)cs2)c(C)c1` it is “inactive”.
Same read-out and setting: the value for `Cc1cc(C2CCCCC2)n(O)c(=O)c1` was “inactive”; that for `CC(C)[C@]1(c2ccc(Cl)cc2)ON(c2ccccc2C(F)(F)F)C1=O` was “inactive”; that for `O=C(O)c1ccccc1SC1CC(=O)N(c2ccc3c(c2)OCO3)C1=O` (stereo unspecified) was “inactive”.
Regarding `COc1cc(/C=C2\C(=O)ON=C2c2ccccc2)cc(Br)c1O`, the “GFP fluorescence, higher = induction” value is “inactive”.
On the same count and under the same terms, the value for `CC(C)[C@@]1(c2ccccc2)ON(c2ccccc2C(F)(F)F)C1=O` was “inactive”.
Same read-out and setting: the value for `Clc1ccc(N=c2ssnc2Cl)cc1` was “inactive”; that for `Cc1ccc(-c2nn(C(C)(C)C)c3ncnc(N)c23)cc1` was “inactive”.
The same measure, in the same setting: the entry for `O=C1ON=C(c2ccccc2)/C1=C/c1ccc(-c2ccccc2[N+](=O)[O-])o1` is “inactive”; for `Cc1c(C)c2ccc(Oc3ccc([N+](=O)[O-])cc3C(F)(F)F)c(C)c2oc1=O` it is “inactive”; for `O=C(COc1ccccc1)NNC(=S)NC(=O)c1ccccc1` it is “inactive”.
With `CCOC(=O)CS(=O)(=O)c1nc(-c2ccccc2)cc(C(F)(F)F)n1`, the “GFP fluorescence, higher = induction” value was “inactive”.
As for `Cc1cc(O)c(C(=O)/C=C/c2c(F)c(F)c(F)c(F)c2F)c(=O)o1`, the “GFP fluorescence, higher = induction” value is “inactive”.
Same read-out and setting: the value for `Cc1cc(C)nc(S/C=C/C(=O)c2ccccc2)n1` was “inactive”.
Take `CC(C)(C)C1C/C(=C/c2ccccn2)C(=O)/C(=C/c2ccccn2)C1` (stereo unspecified): the “GFP fluorescence, higher = induction” value was “inactive”.
Same read-out and setting: the entry for `O=C(COc1c(Br)cc(Br)c2cccnc12)N1CCc2ccccc2C1` is “inactive”; for `CCC(=O)Oc1oc(-c2ccccc2)nc1C=Nc1ccc(C)cc1` it is “inactive”; for `CCOC(=O)c1ccc(N=Cc2nc(-c3ccccc3)oc2OC(C)=O)cc1` it is “inactive”.
Still for that read-out and setting: the entry for `CCOc1ccc(N2C(=O)C(Cl)=C(Nc3ccccc3O)C2=O)cc1` is “inactive”; for `Cc1ccc(C(=O)O/N=C(\N)Cc2cccs2)c(Cl)c1` it is “inactive”.
Same read-out and setting: the value for `COc1ccc(N=Cc2nc(-c3ccccc3)oc2OC(=O)c2ccccc2)cc1` was “inactive”; that for `Cc1ccc(NC(=O)CCc2ccccc2)cc1S(=O)(=O)N1CCOCC1` was “inactive”; that for `CCCCCCCCCCCCCCCC[n+]1cccc2ccccc21` was “inactive”.
As to `O=C(/C=C/c1ccccc1[N+](=O)[O-])c1ccccc1Br`, the “GFP fluorescence, higher = induction” value is “inactive”.
As for `CCCCc1ccc(/C=C2/C(=O)ON=C2c2ccccc2)s1`, the “GFP fluorescence, higher = induction” value is “inactive”.
On the same count and under the same terms, the entry for `COc1cc(/C=C2\CC/C(=C\c3cc(OC)c(O)c(OC)c3)C2=O)cc(OC)c1O` is “inactive”.
Consider `CCCc1cc(NCc2ccccn2)n2nc(C)c(-c3ccccc3)c2n1`, for which the “GFP fluorescence, higher = induction” value is “inactive”.
On the same count and under the same terms, the entry for `CCCCCCCCn1sccc1=O` is “inactive”.
Take `CCCCC(=O)NNC(=S)NC(=O)c1ccc(C)cc1`: the EC50 is 3.39 µM.
Turning to `O=C(O)/C=C/C(=O)c1ccc2c(c1)CCc1ccccc1-2`, the “GFP fluorescence, higher = induction” value was “inactive”.
On the same count and under the same terms, the value for `CS(=O)(=O)c1nc(-c2ccccc2)cc(C(F)(F)F)n1` was “inactive”; that for `COc1ccc(N2C(=O)/C(=C/c3cccs3)C(=O)NC2=S)cc1` was “inactive”; that for `C/C(=N\NC(=O)c1cc2ccccc2cc1O)c1ccccn1` was “inactive”.
As for `N/C(Cc1ccc(Cl)cc1)=N\OC(=O)c1cccc2ccccc12`, the EC50 was 1.35 µM.
Consider `Cc1ccc(S(=O)(=O)/N=C(\Sc2ccccc2)c2ccccc2)cc1`, for which the “GFP fluorescence, higher = induction” value was “inactive”.
On the same count and under the same terms, the value for `N/C(Cc1ccc(Cl)cc1Cl)=N\OC(=O)c1ccccc1` was “inactive”; that for `CCCCNc1c2c3c(cccc3n(C)c1=O)C(=O)c1ccccc1-2` was “inactive”.
The same measure, in the same setting: the entry for `Cc1ccc(/C=c2\sc3nc(-c4cccs4)nn3c2=O)o1` is “inactive”; for `Cc1ccc(C(=O)NNC(=S)NC(=O)c2ccco2)cc1` it is “inactive”.
On the same count and under the same terms, the entry for `O=C1ON=C(c2ccccc2)/C1=C\c1ccco1` is “inactive”.
As to `Cc1cccc(C(=O)NNC(=S)NC(=O)c2ccccc2)c1`, the “GFP fluorescence, higher = induction” value was “inactive”.
Take `COc1ccc(N2CCN(C(=O)c3ccccc3)CC2)c([N+](=O)[O-])c1`: the “GFP fluorescence, higher = induction” value is “inactive”.
Regarding `O=C(Nc1nc(-c2ccccn2)cs1)c1cc2ccccc2o1`, the “GFP fluorescence, higher = induction” value was “inactive”.
`Cc1ccsc1/C=N/Nc1ncc(Cl)cc1Cl`: the “GFP fluorescence, higher = induction” value is “inactive”.
Consider `O=C(OCC(=O)N1CCN(C(=O)c2ccco2)CC1)c1cc(-c2cccc(Br)c2)nc2ccccc12`, for which the “GFP fluorescence, higher = induction” value was “inactive”.
